Assay results from patent publication US9334212B2, “Compounds and compositions” (Colgate-Palmolive Company, priority 2010, dated 2016).
≈ marks a conversion by molar mass, not a printed value. Like-named read-outs stand apart in the source and are kept apart here.

Experiments:
Format in all cases: cell-based
E. coli = assay: Rapid Agar Plate Assay (RAPA); conditions: vs tap water washed plates
Method: (§1) The compound of Formula (II) was mixed with a base bar soap chip and tested for any residual antibacterial activity against S. aureus and E. coli by a rapid agar plate assay (RAPA). Briefly, the method involves washing TSA plates with the soap samples for 10 seconds, lathering for another 40 seconds and finally rinsing for 10 seconds. After air drying for 30 minutes, 100 μL of freshly prepared bacterial suspension (density was adjusted to 0.1 OD at 620 nm) was applied on the treated plates and then plates were incubated at 37° C. for about 18 hours. TSA plates washed with normal tap water were used as negative control. Next day, bacterial colonies were counted and converted to log 10 and the log reductions as a result of washing with samples were calculated.

S. aureus = assay: Rapid Agar Plate Assay (RAPA); conditions: for Log reduction in Bacterial Count: vs tap water washed plates
Method: as §1

bacterial suspension = assay: Short Interval Kill Test (SIKT)
Method: SIKT determines the kill effect of the test article at a predetermined exposure time. […] Briefly, 1.2 mL of the compound of Formula (II)+PEG 300 was transferred into a sterile test tube, to which 0.2 mL of a freshly prepared bacterial suspension (OD adjusted to 0.1 at 620 nm) was added and gently mixed. The reaction was neutralized at the 1 minute or at the 5 minute point by adding a neutralizing broth. The reaction mixture was further diluted with letheen broth in 10-fold fashion and plated on MCA (Microbial Count Agar) plates for viable bacterial count.

[1] = test system: Corynebacterium minutissimum (C. minutissimum); assay: Zone of Inhibition Test (ZOI)
Method: (§2) The compound of Formula (II) was evaluated for its antibacterial efficacy against representative skin bacteria such as Staphylococcus aureus (S. aureus), Staphylococcus epidermidis (S. epidermidis), Corynebacterium minutissimum (C. minutissimum), Corynebacterium xerosis (C. xerosis) and Escherichia coli (E. coli). Zone of inhibition (ZOI), Minimum Inhibitory Concentration (MIC), and a Short Interval Kill Test (SIKT) were all performed, and the results are described in Tables 2-4 (below).
(§3) 20 μL of each solution was placed on separate filter disks and air dried for 20 minutes. After 20 minutes of drying, the coated disks were placed in the bacterial lawn and plates were incubated at 37° C. for 18 hours, followed by measurement of ZOI.
(§4) The antibacterial efficacy of the compound of Formula (II) was measured in comparison to triclosan, using various tests. The results are provided below in Tables 5 and 6.

[2] = test system: Staphylococcus aureus (S. aureus); assay: Zone of Inhibition Test (ZOI)
Method: as §2, §3, §4

S. mutans = assay: Minimum Inhibitory Concentration, oral pathogens; conditions: Streptococcus mutans, read-out: Minimum Inhibitory Concentration
Excerpt: (§5) Table 1 (below) describes the antibacterial efficacy of an exemplary compound of the present invention against common oral pathogens, A. viscosus and S. mutans.

A. viscosus = assay: Minimum Inhibitory Concentration, oral pathogens; conditions: Actinomyces viscosus, read-out: Minimum Inhibitory Concentration
Excerpt: as §5

[3] = test system: Corynebacterium minutissimum (C. minutissimum); assay: Minimum Inhibitory Concentration (MIC), skin bacteria; conditions: for MIC: Corynebacterium minutissimum, read-out: Minimum Inhibitory Concentration
Method: as §2
(§6) MIC against four common skin pathogens was evaluated for the compound of Formula (II), using the following method: A two-fold dilution of the compound of Formula (II) was prepared in a 96 well plate and a constant amount of bacteria added in each well. After 18-24 hours of incubation, bacterial growth was measured by using a Spectrophotometric Micro-plate Reader and the MIC values were determined.
as §4

[4] = test system: Escherichia coli (E. coli); assay: as above
Method: as §2, §6, §4

[5] = test system: Staphylococcus aureus (S. aureus); assay: as above; conditions: for MIC: Staphylococcus aureus, read-out: Minimum Inhibitory Concentration
Method: as §2, §6, §4

[6] = test system: Corynebacterium xerosis (C. xerosis); assay: as above; conditions: read-out: Minimum Inhibitory Concentration
Method: as §2, §6

[7] = test system: Staphylococcus epidermidis (S. epidermidis); assay: as above; conditions: for MIC: Staphylococcus epidermidis, read-out: Minimum Inhibitory Concentration
Method: as §2, §6

[8] = test system: Escherichia coli (E. coli); assay: Zone of Inhibition Test (ZOI); conditions: Example 4
Method: as §2
as §3, with “The compound of Formula (II) was dissolved in polyethylene glycol (PEG 300), or in 100% ethanol at 0.5% concentration. 20 μL” for “20 μL”
as §4

[9] = test system: Corynebacterium xerosis (C. xerosis); assay: Zone of Inhibition Test (ZOI); conditions: 37° C. 18 hours
Method: as §2
as §3, with “The compound of Formula (II) was dissolved in polyethylene glycol (PEG 300), or in 100% ethanol at 0.5% concentration. 20 μL” for “20 μL”

[10] = test system: Staphylococcus epidermidis (S. epidermidis); assay: Zone of Inhibition Test (ZOI); conditions: S. epiderm., 37° C. 18 hours
Method: as §2
as §3, with “The compound of Formula (II) was dissolved in polyethylene glycol (PEG 300), or in 100% ethanol at 0.5% concentration. 20 μL” for “20 μL”

[11] = 0.5% in EtOH, 20 μL on filter disk, 37° C. 18 hours
[12] = 0.5% in PEG 300, 20 μL on filter disk, 37° C. 18 hours
[13] = 0.5% in EtOH, 20 μL on filter disk
[14] = 0.5% in PEG 300, 20 μL on filter disk

O=C(Nc1ccc(Cl)cc1)Nc1ccc(Cl)c(Cl)c1 [TCC, reference compound]
Log reduction in Bacterial Count (E. coli; 0.4% TCC bar): 0.167 log | Log reduction in Bacterial Count (S. aureus; 0.4% TCC bar): 2.409 log | Short Interval Kill Test kill effect (bacterial suspension; 0.5%, exposure time 1 minute): 56.54 | Short Interval Kill Test kill effect (bacterial suspension; 0.5%, exposure time 5 minute): 74.11

Oc1cc(Cl)ccc1Oc1ccc(Cl)cc1Cl [Triclosan, 5-chloro-2-(2,4-dichlorophenoxy)phenol, reference compound]
Zone of Inhibition ([1]; 0.15%, Example 4): 21 mm | Zone of Inhibition ([2]; 0.15%, Example 4): 50 mm | Log reduction in Bacterial Count (E. coli; 0.25% Triclosan bar): 2.387 log | Log reduction in Bacterial Count (S. aureus; 0.25% Triclosan bar): 2.409 log | MIC (S. mutans): 1 to 2 µg/mL (≈ 3.45 to 6.91 µM) | MIC (A. viscosus): 1 to 2 µg/mL (≈ 3.45 to 6.91 µM) | Minimum Inhibitory Concentration ([3]; C. minutissimum, 0.15% active, Example 4): 4.88 ppm | MIC [3]: 4.88 µg/mL (≈ 16.9 µM) | MIC ([4]; read-out: Minimum Inhibitory Concentration): < 2.44 µg/mL | Minimum Inhibitory Concentration ([5]; S. aureus, 0.15% active, Example 4): <2.44 ppm | MIC [5]: < 2.44 µg/mL | MIC [6]: 9.76 µg/mL (≈ 33.7 µM) | MIC [7]: < 2.44 µg/mL | Zone of Inhibition ([8]; 0.15%): 40 mm

C=CCc1ccc(O)c(-c2cc(CC=C)ccc2O)c1 [Magnolol, magnolol]
MIC (S. mutans): 32 µg/mL (≈ 120 µM) | MIC (A. viscosus): 32 µg/mL (≈ 120 µM)

C=CCc1cc(Cl)c(O)c(-c2cc(CC=C)cc(Cl)c2O)c1 [Compound of Formula (II)]
Zone of Inhibition [1, 11]: 17 mm | Zone of Inhibition [1, 12]: 21 mm | Zone of Inhibition ([1]; 0.5%, Example 4): 22 mm | Zone of Inhibition [2, 11]: 13 mm | Zone of Inhibition [2, 12]: 15 mm | Zone of Inhibition ([2]; 0.5%, Example 4): 20 mm | Log reduction in Bacterial Count (E. coli; 0.5% in soap chip): 0.09 log | Log reduction in Bacterial Count (S. aureus; 0.5% in soap chip): 0.506 log | Log reduction in Bacterial Count (S. aureus; 0.5% in soap chip, listed as compound of Formula (II)): 0.5 log | reduction in the growth (S. aureus; bar soap chip containing 0.5%): > 50% | MIC (S. mutans; S. mutans): 0.5 to 1 µg/mL | MIC (A. viscosus; A. viscosus): 0.5 to 1 µg/mL | Short Interval Kill Test kill effect (bacterial suspension; 0.5% + PEG 300, exposure time 1 minute): 65.18 | Short Interval Kill Test kill effect (bacterial suspension; 0.5% + PEG 300, exposure time 5 minute): 87.37 | MIC ([3]; C. minutissimum, 0.5% active, Example 4): 9.7 µg/mL | MIC ([3]; C. minutissimum, + EtOH, 18-24 hours incubation): 39 µg/mL | MIC ([3]; C. minutissimum, + PEG 300, 18-24 hours incubation): 9.77 µg/mL | MIC ([4]; E. coli, 0.5% active, Example 4, read-out: Minimum Inhibitory Concentration): 1250 µg/mL | MIC ([5]; S. aureus, 0.5% active, Example 4): 2.44 µg/mL | MIC ([5]; S. aureus, + EtOH, 18-24 hours incubation): 39 µg/mL | MIC ([5]; S. aureus, + PEG 300, 18-24 hours incubation): 19.5 µg/mL | MIC ([6]; C. xerosis, + EtOH, 18-24 hours incubation): 156 µg/mL | MIC ([6]; C. xerosis, + PEG 300, 18-24 hours incubation): 78 µg/mL | Minimum Inhibitory Concentration ([7]; S. epiderm., + EtOH, 18-24 hours incubation): 39 ppm | MIC ([7]; S. epiderm., + PEG 300, 18-24 hours incubation): 39 µg/mL | Zone of Inhibition ([8]; 0.5%): 0 mm | Zone of Inhibition [9, 13]: 14 mm | Zone of Inhibition [9, 14]: 15 mm | Zone of Inhibition [10, 13]: 15 mm | Zone of Inhibition [10, 14]: 16 mm
